In US9522260B2, “Apparatus for the controlled release of topical nitric oxide” (University of Windsor, priority 2011, dated 2016):

Experiment: Thermal and storage stability of AuNP nanocomposites and SNOG
Type: physicochemical
Description: All of the AuNP-nanocomposites i) to iv) as well as SNOG solutions 1 mM, dissolved in distilled deionized water and containing 100 μM diethylenetriaminepentaacetic acid (DPTA) a metal chelator were stored at 5° C., 25° C. and 55° C. for 1 month. These components were then added to the testing apparatus 90 (FIG. 3) and their NO-release characteristics were compared to fresh samples.
In one simplest and most cost effective manner to prepare an AuNP-nanocomposite, cotton gauze with AuNP (˜10 nm) is prepared by a conventional citrate reduction method.
SNOG solutions (1 mM) containing DPTA (0.1 mm) decomposed ˜5% upon incubation at 40° C. for 7 days. Stability of the SNOG may be increased further by either suspending it in polyethylene glycol or dissolving it in glycerol.

## N[C@@H](CCC(=O)N[C@@H](CSN=O)C(=O)NCC(=O)O)C(=O)O [SNOG, S-nitrosoglutathione]
SNOG solutions (1 mM) containing DPTA (0.1 mm), incubation at 40° C. for 7 days
  decomposition of SNOG solution: ~5%
solid, storage at 40° C. for one week, preliminary experiments
  thermal stability of solid SNOG: thermally stable
